pIC50: −log10 of the molar value.
molecular target: T1, GID4 (Uniprot ID: Q81VV7, residues 124-289) (Homo sapiens, UniProt Q8IVV7); experiment: GID4 competitive binding assay (AlphaScreen, GID4/degron peptide PGLW); details: 24 nM GID4, 48 nM biotinylated degron peptide PGLW, 4° C., read-out: IC50 (Inhibition of GID4/Degron binding by test compounds)
T1 construct: GID4 (Uniprot ID: Q81VV7, residues 124-289)
T1 sequence (Q8IVV7 124-289): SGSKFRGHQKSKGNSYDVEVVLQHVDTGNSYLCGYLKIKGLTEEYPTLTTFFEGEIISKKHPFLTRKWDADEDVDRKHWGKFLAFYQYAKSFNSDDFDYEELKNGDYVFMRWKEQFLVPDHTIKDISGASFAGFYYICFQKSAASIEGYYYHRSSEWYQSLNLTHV
Method in brief: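 His-tagged human GID4 (residues 124-289, 24 nM) pre-incubated 2 h at 4 °C with 48 nM biotinylated PGLW peptide and compound in HEPES pH 7.5 buffer, 2% DMSO (final). AlphaScreen streptavidin donor/Ni-NTA acceptor beads added for 1 h; IC50 from nonlinear fit of % inhibition versus DMSO.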

Compound	pIC50
Nc1nc(NCC2CC2)cc(N2CCOC(c3ccccc3Br)C2)n1 (single isomer, unassigned) [Compound 78, R or S-6-(2-(2-bromophenyl)morpholino)-N^4-(cyclopropylmethyl)pyrimidine-2,4-diamine]	> 6.30
CNc1nc(N)cc(N2CCNC(c3ccccc3Br)C2)n1 (single isomer, unassigned) [Compound 113, (R/S)-6-(3-(2-bromophenyl)piperazin-1-yl)-N2-methylpyrimidine-2,4-diamine]	5.30 to 6.30
CC(C)c1cc(N2CC[C@@H](F)[C@@H](c3ncn4ccccc34)C2)nc(N)n1 (racemic) [Compound 229, 4-((3R,4R)-4-fluoro-3-(imidazo[1,5-a]pyridin-1-yl)piperidin-1-yl)-6-isopropylpyrimidin-2-amine]	< 5.30
CC(=O)N1CCN(c2cc(N)nc(N)n2)C[C@@H]1c1ccccc1Br (stereo in doubt) [Compound 59, (S/R)-1-(2-(2-bromophenyl)-4-(2,6-diaminopyrimidin-4-yl)piperazin-1-yl)ethan-1-one]	< 5.30
CC(C)c1nc(N)cc(N2CCOC(c3ccccc3Br)C2)n1 (single isomer, unassigned) [Compound 73, (R/S)-6-(2-(2-bromophenyl)morpholino)-2-isopropylpyrimidin-4-amine]	5.30 to 6.30
CN(C)CCCNC(=O)C1CC=C(c2cc(O)c3ncccc3c2)CC1 (stereo not shown) [Compound 305, N-(3-(dimethylamino)propyl)-4-(8-hydroxyquinolin-6-yl)cyclohex-3-ene-1-carboxamide]	5.30 to 6.30
CC(C)c1cc(N2CCN[C@H](c3cnc4ccccn34)C2)c2nc[nH]c2n1 (stereo in doubt) [Compound 369, (S/R)-7-(3-(imidazo[1,2-a]pyridin-3-yl)piperazin-1-yl)-5-isopropyl-3H-imidazo[4,5-b]pyridine]	> 6.30
CC(C)c1cc(N2CCCC(c3cnc4ccncn34)C2)nc(N)n1 (stereo not shown) [Compound 239, 4-(3-(imidazo[1,2-c]pyrimidin-3-yl)piperidin-1-yl)-6-isopropylpyrimidin-2-amine]	5.30 to 6.30
CC(C)c1cc(N2CCNC(c3cnn4ccccc34)C2)nc(N)n1 (stereo not shown) [Compound 22, 4-isopropyl-6-(3-(pyrazolo[1,5-a]pyridin-3-yl)piperazin-1-yl)pyrimidin-2-amine]	> 6.30
CNc1cc(N2CCCC(c3ncc4ccccn34)C2)nc(N)n1 (stereo not shown) [Compound 94, 6-(3-(imidazo[1,5-a]pyridin-3-yl)piperidin-1-yl)-N4-methylpyrimidine-2,4-diamine]	< 5.30
Nc1nc2c(c(N3CCNC(c4ccccc4Br)C3)n1)CSC2 (stereo not shown) [Compound 189, 4-(3-(2-bromophenyl)piperazin-1-yl)-5,7-dihydrothieno[3,4-d]pyrimidin-2-amine]	< 5.30
CNc1cc(N2CCCC(c3cnc4ccccn34)C2)nc(NC)n1 (racemic) [Compound 124, (R/S)-6-(3-(imidazo[1,2-a]pyridin-3-yl)piperidin-1-yl)-N2,N4-dimethylpyrimidine-2,4-diamine]	5.30 to 6.30
CC(C)c1cc(N2CCNC(c3cc(Br)ccc3Br)C2)nc(N)n1 (stereo not shown) [Compound 200, 4-(3-(2,5-dibromophenyl)piperazin-1-yl)-6-isopropylpyrimidin-2-amine]	5.30 to 6.30
Nc1nc(C2CC2)cc(N2CCNC(c3cnc4ccccn34)C2)n1 (single isomer, unassigned) [Compound 103, (S/R)-4-cyclopropyl-6-(3-(imidazo[1,2-a]pyridin-3-yl)piperazin-1-yl)pyrimidin-2-amine]	5.30 to 6.30
Nc1cc(N2CCNC(c3ccccc3C(F)(F)F)C2)nc(N)n1 (stereo not shown) [Compound 54, 6-(3-(2-(trifluoromethyl)phenyl)piperazin-1-yl)pyrimidine-2,4-diamine]	> 6.30
O=C1NCCc2cc(-c3cccc(C(=O)N4CCCC4)c3)ccc21 [Compound 278, 6-(3-(pyrrolidine-1-carbonyl)phenyl)-3,4-dihydroisoquinolin-1(2H)-one]	5.30 to 6.30
CN(C)CCCNC(=O)c1ccc(-c2cc(O)c3ncccc3c2)c(F)c1Cl [Compound 310, 2-chloro-N-(3-(dimethylamino)propyl)-3-fluoro-4-(8-hydroxyquinolin-6-yl)benzamide]	5.30 to 6.30
CN(C)CCCNC(=O)Cc1ccc(-c2cc(O)c3ncccc3c2)cc1 [Compound 288, N-(3-(dimethylamino)propyl)-2-(4-(8-hydroxyquinolin-6-yl)phenyl)acetamide]	> 6.30
CN(C)CCCNC(=O)c1ccc(-c2cc(O)c3ncccc3c2)c(Cl)c1 [Compound 317, 3-chloro-N-(3-(dimethylamino)propyl)-4-(8-hydroxyquinolin-6-yl)benzamide]	5.30 to 6.30
O=C(c1cccc(-c2ccc3c(=O)[nH]ccc3c2)c1)N1CCCC1 [Compound 352, 6-(3-(pyrrolidine-1-carbonyl)phenyl)isoquinolin-1(2H)-one]	5.30 to 6.30

Compound	pIC50
O=C(c1cccc(-c2cc(O)c3ncccc3c2)c1)N1CCCC1 [Compound 293, (3-(8-hydroxyquinolin-6-yl)phenyl)(pyrrolidin-1-yl)methanone]	5.30 to 6.30
CN(C)CCCNC(=O)c1ccc(-c2cc(O)c3ncccc3c2)cc1N [Compound 312, 2-amino-N-(3-(dimethylamino)propyl)-4-(8-hydroxyquinolin-6-yl)benzamide]	> 6.30
CN(C)CCCNC(=O)c1ccc2c(-c3ccc4ccnc(N)c4c3)csc2c1 [Compound 357, 3-(1-aminoisoquinolin-7-yl)-N-(3-(dimethylamino)propyl)benzo[b]thiophene-6-carboxamide]	5.30 to 6.30
CC(=O)N1CCN(c2cc(N)nc(N)n2)C[C@H]1c1ccccc1Br (stereo in doubt) [Compound 60, (R/S)-1-(2-(2-bromophenyl)-4-(2,6-diaminopyrimidin-4-yl)piperazin-1-yl)ethan-1-one]	< 5.30
Nc1nc(NC2CC2)cc(N2CCO[C@@H](c3ccccc3)C2)n1 (racemic) [Compound 95, (S/R)-N4-cyclopropyl-6-(2-phenylmorpholino)pyrimidine-2,4-diamine]	< 5.30
CN(C)CCCNC(=O)c1ccc(-c2cc(O)c3ncccc3c2)s1 [Compound 296, N-(3-(dimethylamino)propyl)-5-(8-hydroxyquinolin-6-yl)thiophene-2-carboxamide]	> 6.30
CN(C)CCCNC(=O)c1ccc(-c2cc(O)c3ncccc3n2)cc1 [Compound 304, N-(3-(dimethylamino)propyl)-4-(4-hydroxy-1,5-naphthyridin-2-yl)benzamide]	5.30 to 6.30
CN(C)CCCNC(=O)c1n[nH]c2ccc(-c3ccc4ncnc(N)c4c3)cc12 [Compound 330, 5-(4-aminoquinazolin-6-yl)-N-(3-(dimethylamino)propyl)-1H-indazole-3-carboxamide]	5.30 to 6.30
Nc1nccc2ccc(-c3cccc(C(=O)N4CCCC4)c3)cc12 [Compound 353, (3-(1-aminoisoquinolin-7-yl)phenyl)(pyrrolidin-1-yl)methanone]	5.30 to 6.30
Nc1cc(N2CCCC(n3c(=O)[nH]c4ccccc43)C2)nc(N)n1 (stereo not shown) [Compound 257, 1-(1-(2,6-diaminopyrimidin-4-yl)piperidin-3-yl)-1,3-dihydro-2H-benzo[d]imidazol-2-one]	< 5.30
CC(C)c1cc(N2CCCCC(O)(c3ccccc3Br)C2)nc(N)n1 (stereo not shown) [Compound 226, 1-(2-amino-6-isopropylpyrimidin-4-yl)-3-(2-bromophenyl)azepan-3-ol]	< 5.30
Nc1nc(NC2CC2)cc(N2CCN(CCO)C(c3ccccc3Br)C2)n1 (single isomer, unassigned) [Compound 44, (R/S)-2-(4-(2-amino-6-(cyclopropylamino)pyrimidin-4-yl)-2-(2-bromophenyl)piperazin-1-yl)ethan-1-ol]	5.30 to 6.30
Nc1nccc2ccc(-c3ccc4[nH]cnc4c3)cc12 [Compound 362, 7-(1H-benzo[d]imidazol-5-yl)isoquinolin-1-amine]	5.30 to 6.30
CCc1cc(N2CCNC(c3cnc4ccccn34)C2)nc(N)n1 (single isomer, unassigned) [Compound 27, (R/S)-4-ethyl-6-(3-(imidazo[1,2-a]pyridin-3-yl)piperazin-1-yl)pyrimidin-2-amine]	< 5.30
Nc1nc(N2CCO[C@@H](c3ccccc3Br)C2)c2[nH]ccc2n1 (racemic) [Compound 47, (S/R)-4-(2-(2-bromophenyl)morpholino)-5H-pyrrolo[3,2-d]pyrimidin-2-amine]	5.30 to 6.30
CNc1cc(N2CCO[C@@H](c3ccccc3)C2)nc(N)n1 (racemic) [Compound 109, (S/R)-N4-methyl-6-(2-phenylmorpholino)pyrimidine-2,4-diamine]	5.30 to 6.30
CC(C)c1nc(N)cc(N2CCO[C@@H](c3ccccc3Br)C2)n1 (racemic) [Compound 72, (S/R)-6-(2-(2-bromophenyl)morpholino)-2-isopropylpyrimidin-4-amine]	> 6.30
CC(C)c1cc(N2CCNC(c3ccccc3Cl)C2)nc(N)n1 (stereo not shown) [Compound 175, 4-(3-(2-chlorophenyl)piperazin-1-yl)-6-isopropylpyrimidin-2-amine]	5.30 to 6.30
CC(C)c1cc(N2CCOC(c3cnc4ccccn34)C2)nc(N)n1 (single isomer, unassigned) [Compound 157, (S/R)-4-(2-(imidazo[1,2-a]pyridin-3-yl)morpholino)-6-isopropylpyrimidin-2-amine]	< 5.30
CC(C)c1cc(N2CCNC(c3nnc4ccccn34)C2)nc(N)n1 (stereo not shown) [Compound 188, 4-(3-([1,2,4]triazolo[4,3-a]pyridin-3-yl)piperazin-1-yl)-6-isopropylpyrimidin-2-amine]	< 5.30

Source: patent US20240132464A1, “HETEROCYCLIC COMPOUNDS AS E3 LIGASE INHIBITORS” (Accutar Biotechnology Inc., priority 2022, published 2024)
